{"source": "patent US8258128B2", "about": "“Organic compounds” (Novartis AG, priority 2006, dated 2012)", "key": {"[1]": {"test_system": "rat carrageenan edema model", "assay": "Carrageenan edema in the rat (paw swelling)", "assay_type": "in vivo", "conditions": "for % inhibition of paw swelling: 3 mg/kg p.o.", "experimental": "Carrageenan edema in the rat: The effects of COMPOUND A are investigated in the carrageenan edema model. In this model an acute paw swelling is induced by the sub-plantar injection of carrageenan. The paw swelling has a duration of approximately 8 hours and is completely resolved at 24 hours. The model is used to assess anti-inflammatory activities of new therapeutics and is also sensitive to drugs such as COX-inhibitors like Diclofenac, which is used as a positive control compound in the model.\nMethod: Male OFA rats (5 animals/group) are treated orally with COMPOUND A (1, 3 and 9 mg/kg), Diclofenac (3 mg/kg) or vehicle (placebo formulation). One hour later (0 hours) the rats receive a 100 μl intra-plantar injection of a 1% w/v carrageenan solution in 0.9% saline in the hind paw and the diameter of the paw is measured by means of a micro-caliper. The paw diameter measurements are repeated 3 and 5 hours after injection of the carrageenan. Percentage inhibition of paw swelling at 3 and 5 hours is calculated by reference to vehicle treated animals (0% inhibition).\nEdema is induced by a sub-plantar injection of carrageenan in the paw of the rat. Paw diameters are measured at the time of carrageenan injection (0 hours) and at 3 and 5 hours. Compounds are administered 1 hour before the carrageenan injection. COMPOUND A was dosed at 1, 3 and 9 mg/kg p.o. and Diclofenac at 3 mg/kg p.o."}, "[2]": {"test_system": "collagen-induced arthritis in the rats", "assay": "Collagen-induced arthritis in the rats, hind paw swelling", "assay_type": "in vivo, rat", "excerpt": "Animal models of RA need to reflect at least some of the features found in human RA (Billingham et al., 1979). Collagen-induced arthritis (CIA) has been proposed to meet these requirements (Durie et al., 1994). Especially the similarity in the joint pathophysiology makes this animal model most attractive for the evaluation of anti-rheumatic drugs (Takeshita et al., 1997). Synovial hyperplasia, which is an integral part of the disease, parallels the migration of leukocytes into the joint space; erosion and destruction of the cartilage surface can also be found (Holmdahl et al., 1985). The rat CIA, originally described by Trentham et al. (1977), was established and extensive studies with CsA were done, including three-dimensional magnetic resonance imaging (MRI) and histology (Beckmann et al., 1995; 1998). Differences in the susceptibility of several rat strains for the development of the disease have been reported (Cremer et al., 1995; Kamada et al., 1997; Knoerzer et al., 1997).\n(§1) Method: For this study, COMPOUND A and COX-inhibitor Diclofenac are dissolved in a solvent containing 5% of glucose (5 ml/kg). Compounds are given orally once a day. Female rats of the WAGxBUF/F1 crossbred strain (weight 130 g) are used. The animals are divided into several groups, one placebo group (N=8), and four treatment groups (each N=7-8). Treatment starts on peak of disease (day 0) and continues for 11 days. Swelling is assessed at regular time intervals by measuring the external thickness of the hind paws in the region of the metatarsals using a micro-caliper. Tissue samples for histological evaluation are obtained at the end of the in vivo experiment, 5 h after the last oral dose of COMPOUND A or placebo on day 11.\nResults shown are means±SEM of groups of each 4-8 animals of paw diameters in mm on day-12 (before the immunization with Type II collagen in incomplete Freund's adjuvant), day 0 (start of treatment) and day 11 (end of treatment).\nThe data shown represent the ability of the treatment (COMPOUND A at 4 different increasing doses) to reduce the volume of the hind paw measured at day 2, day 7 and day 11."}, "[3]": {"test_system": "collagen-induced arthritis in the rats", "assay": "Collagen-induced arthritis in the rats, histological evaluation of hind paws", "assay_type": "in vivo, rat", "conditions": "1 mg/kg/day p.o., day 11", "experimental": "as §1\nHind paws from control arthritic rats (vehicle-treated), taken post-mortem at the end of day 11 of the treatment, obtained relatively high histological scorings compared to histological scores of animals treated with COMPOUND A (0.3, 1, 3 and 9 mg/kg) or Diclofenac (1 mg/kg)."}, "[4]": {"test_system": "established Adjuvant-induced arthritis in rats", "assay": "Established adjuvant-induced arthritis in rats (therapeutic dosing schedule)", "assay_type": "in vivo, rat", "conditions": "1 mg/kg/day p.o., 7 day treatment (Table 7)", "excerpt": "Adjuvant arthritis can be treated using two different dosing schedules; either starting at the time of immunization with adjuvant (prophylactic dosing) or from day 15 when the arthritic response is already established (therapeutic dosing). It is more difficult to inhibit adjuvant arthritis with the therapeutic dosing schedule as compared to the prophylactic schedule. Both versions of adjuvant arthritis are, however, extremely sensitive to the effects of both non-selective COX inhibitors and COX 2 selective inhibitors where 70-90% inhibition of swelling can be achieved at appropriate doses. These models may be predictive for some of the processes thought to be relevant in rheumatoid arthritis.\nMethod: Female Wistar rats weighing 150-170 g (housed in standard conditions, 5 animals per cage, with food and water ad libitum) are injected i.d. at the base of the tail with 0.1 ml of mineral oil containing 0.6 mg of lyophilized heat-killed Mycobacterium tuberculosis. The rats are treated orally with COMPOUND A or placebo formulation from day 15 to day 22 (therapeutic dosing schedule) or with COMPOUND A from day 0 to day 14 after immunization (prophylactic dosing schedule). At the end of the experiment, the swelling of the tarsal joints is measured by means of a micro-caliper. For the comparison study to Diclofenac both compounds are given from day 15 to day 29 with readouts at day 22 and 29. Percentage inhibition of paw swelling is calculated by reference to placebo treated arthritic animals (0% inhibition) and placebo treated normal animals (100% inhibition). Five animals are used per group. Data are analyzed using Kruskal-Wallis non-parametric ANOVA followed by Dunn's Multiple Comparison test."}}, "note": "Counter-ions that a name gives are not always drawn."}
{"smiles": "COC1=Nc2cc(Cl)ccc2/C(=C/C(=O)O)c2sccc21", "note": "[Compound 1.001, [7-Chloro-10-methoxy-3-thia-9-aza-benzo[f]azulen-(4Z)-ylidene]-acetic acid]", "values": [{"measurement": "melting point", "result": "186 to 188", "unit": "°C"}]}
{"smiles": "O=C(O)Cc1ccccc1Nc1c(Cl)cccc1Cl", "note": "[Diclofenac, sodium salt of 2-[(2,6-dichlorophenyl)amino]benzeneacetic acid, reference compound]", "values": [{"measurement": "% inhibition of paw swelling", "setting": "[1]; 3 hrs after carrageenan", "result": 91, "unit": "%"}, {"measurement": "% inhibition of paw swelling", "setting": "[1]; 5 hrs after carrageenan", "result": 87, "unit": "%"}, {"measurement": "inhibition in the carrageenan edema model", "setting": "[1]; 3 mg/kg, at both times (3 and 5 hours)", "result": "87-91%"}, {"measurement": "hind paw diameter, mean ± SEM", "setting": "[2]; 1 mg/kg group, Day 0 (start of treatment)", "result": "5.300 ± 0.265", "unit": "mm"}, {"measurement": "hind paw diameter, mean ± SEM", "setting": "[2]; 1 mg/kg group, Day −12 (before immunization)", "result": "3.038 ± 0.024", "unit": "mm"}, {"measurement": "median inhibition of swelling, analysis of the AUC during day 0 to 11", "setting": "[2]; 1 mg/kg per day p.o.", "result": "57±9.9", "unit": "%"}, {"measurement": "hind paw diameter, mean ± SEM", "setting": "[2]; 1 mg/kg per day p.o., Day 11 (end of treatment)", "result": "3.750 ± 0.029", "unit": "mm"}, {"measurement": "Bone apposition, effect on histological score", "setting": "[3]", "result": "−38", "unit": "%"}, {"measurement": "Cartilage damage, effect on histological score", "setting": "[3]", "result": "−32", "unit": "%"}, {"measurement": "Infiltration of cells, effect on histological score", "setting": "[3]", "result": "−22", "unit": "%"}, {"measurement": "Loss of PG, effect on histological score", "setting": "[3]", "result": "−24", "unit": "%"}, {"measurement": "Swelling (mm) ± S.D.", "setting": "[4]", "result": "4.27 ± 0.31", "unit": "mm"}]}
